Experiment [1] concerns ATP synthesis. Put plainly: Cellular ATP synthesis in the presence of compounds. In kind it is cell-based. Conditions: compounds exposed to cells (FIG. 6). The method, then:
The following four compounds were exposed to cells, and ATP synthesis measured: […]

Experiment [2] has as its target T1, oligomycin sensitivity conferring protein (OSCP) component of the mitochondrial F1F0-ATPase (Homo sapiens, UniProt P48047).
T1 sequence (P48047 24-213): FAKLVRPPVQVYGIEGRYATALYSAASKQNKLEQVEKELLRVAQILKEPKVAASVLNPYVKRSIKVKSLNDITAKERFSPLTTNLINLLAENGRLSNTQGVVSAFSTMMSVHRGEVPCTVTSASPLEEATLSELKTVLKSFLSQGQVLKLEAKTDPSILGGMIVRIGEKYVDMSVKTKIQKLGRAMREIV
The following applies: cited from earlier work.

Experiment [3] relates to mitochondrial F1F0-ATPase. Conditions: cited from earlier work.
Experiment [4] has as its system animal models of lupus. The following applies: in vivo; cited from earlier work.

The structures appear in SMILES notation.

For the compound `CN1C(=O)C(c2ccccc2)NC(c2ccc(O)cc2)c2cc(Cl)ccc21` (stereo not shown), the “inhibition of ATP synthesis” value in experiment [1] is given as “did inhibit ATP synthesis”.
For `CN1C(=O)C(Cc2ccc3ccccc3c2)N=C(c2ccc(O)cc2)c2cc(Cl)ccc21` (stereo not shown) [Bz-423], the “binding to OSCP” value in experiment [2] is listed as “binds to the oligomycin sensitivity conferring protein (OSCP)”. Also, the “inhibition of the F1F0-ATPase” value in experiment [3] is given as “inhibits the enzyme”. The “activity in animal models of lupus” value in experiment [4] is reported as “potent activity in animal models of lupus”.

(Values after patent US8791104B2, “1,4-benzodiazepine-2,5-diones with therapeutic properties” (The Regents of the University of Michigan, priority 2005, dated 2014).)
